Experimental data published in patent EP3072511A1, “The medical use of 3-aryl substituted 1-indanones” (Centrum Badan Molekularnych I Makromolekularnych Polskiej …, priority 2013, dated 2016).

Tests used:
[1] = tested on: cell line HeLa (cervix carcinoma, human); assay: MTT cytotoxicity test, HeLa cells; settings: 48 h, read-out: HeLa IC50 after 48h
bovine diarrhea virus = bovine diarrhea virus as counterpart of hepatitis virus C; cited from earlier work

Row | Structure (SMILES) | IC50 [1] [µM] | selectivity index (SI) (bovine diarrhea virus)
1 | COc1cc(OC)c2c(c1)C(=O)CC2c1ccc(Br)cc1 (stereo not drawn) [Compound 3a, 3-(para-bromophenyl) substituted 1-indanone] | 60 | 
2 | COP(=O)(OC)C1C(=O)c2cc3c(cc2C1c1ccccc1)OCO3 (stereo not drawn) [Compound 1a, 2-phosphoryl-3-phenyl substituted 1-indanone] | 90 | 
3 | NC(=O)c1ncn([C@@H]2O[C@H](CO)[C@@H](O)[C@H]2O)n1 [ribavirin] |  | 11.64
